Data reported in ChEMBL document CHEMBL3627608, “Crystal structures of human RIP2 kinase catalytic domain complexed with ATP-competitive inhibitors: Foundations for understanding inhibitor selectivity” (Bioorg Med Chem, 2015).

What was measured:
[1] = target: T1, Mitogen-activated protein kinase 15 (Homo sapiens) (UniProt Q8TD08); experiment: Inhibition of ERK7 (unknown origin) at 10 uM after 120 mins P33 radiolabeled kinase activity assay
T1 sequence (whole entry): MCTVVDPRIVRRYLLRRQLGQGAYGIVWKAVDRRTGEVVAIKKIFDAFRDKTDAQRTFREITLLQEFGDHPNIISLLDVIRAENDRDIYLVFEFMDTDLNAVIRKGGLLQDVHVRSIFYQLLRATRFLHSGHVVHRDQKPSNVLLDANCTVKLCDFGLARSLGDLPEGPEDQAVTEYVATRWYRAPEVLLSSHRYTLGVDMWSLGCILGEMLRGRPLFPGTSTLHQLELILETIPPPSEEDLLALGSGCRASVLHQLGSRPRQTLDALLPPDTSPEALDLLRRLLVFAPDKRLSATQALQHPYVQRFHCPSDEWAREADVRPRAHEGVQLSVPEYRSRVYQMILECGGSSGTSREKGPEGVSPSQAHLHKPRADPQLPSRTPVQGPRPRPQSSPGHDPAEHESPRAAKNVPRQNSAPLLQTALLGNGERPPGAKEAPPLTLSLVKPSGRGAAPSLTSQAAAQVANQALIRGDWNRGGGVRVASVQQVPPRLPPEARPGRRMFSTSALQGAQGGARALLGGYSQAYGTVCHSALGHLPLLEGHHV

[2] = target: T2, Serine/threonine-protein kinase D3 (Homo sapiens) (UniProt O94806); experiment: Inhibition of PKCnu (unknown origin) at 10 uM after 120 mins P33 radiolabeled kinase activity assay
T2 sequence (whole entry): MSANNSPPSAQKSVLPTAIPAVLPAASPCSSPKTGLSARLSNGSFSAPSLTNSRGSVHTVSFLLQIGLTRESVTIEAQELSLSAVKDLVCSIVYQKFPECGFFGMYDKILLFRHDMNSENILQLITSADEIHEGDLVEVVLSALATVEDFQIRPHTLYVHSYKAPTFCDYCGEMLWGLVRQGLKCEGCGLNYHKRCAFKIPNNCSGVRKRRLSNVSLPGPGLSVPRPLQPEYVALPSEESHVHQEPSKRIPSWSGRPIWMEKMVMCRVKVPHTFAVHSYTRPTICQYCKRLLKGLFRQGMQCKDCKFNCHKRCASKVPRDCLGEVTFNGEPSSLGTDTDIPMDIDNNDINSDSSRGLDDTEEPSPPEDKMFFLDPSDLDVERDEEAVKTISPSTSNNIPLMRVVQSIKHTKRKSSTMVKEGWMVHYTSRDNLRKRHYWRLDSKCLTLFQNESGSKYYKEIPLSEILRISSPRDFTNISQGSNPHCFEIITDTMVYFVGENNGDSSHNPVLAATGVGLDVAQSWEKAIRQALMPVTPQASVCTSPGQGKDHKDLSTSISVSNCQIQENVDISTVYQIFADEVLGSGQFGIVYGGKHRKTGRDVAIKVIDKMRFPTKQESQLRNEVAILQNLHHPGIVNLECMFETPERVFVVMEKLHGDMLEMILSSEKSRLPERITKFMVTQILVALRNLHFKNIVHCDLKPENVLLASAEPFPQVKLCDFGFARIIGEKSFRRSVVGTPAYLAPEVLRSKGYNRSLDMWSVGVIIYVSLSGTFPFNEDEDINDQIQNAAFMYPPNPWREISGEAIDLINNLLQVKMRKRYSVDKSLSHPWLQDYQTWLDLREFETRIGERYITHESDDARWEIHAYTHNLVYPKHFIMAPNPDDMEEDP

[3] = target: T3, Serine/threonine-protein kinase ULK2 (Homo sapiens) (UniProt Q8IYT8); experiment: Inhibition of ULK2 (unknown origin) at 10 uM after 120 mins P33 radiolabeled kinase activity assay
T3 sequence (whole entry): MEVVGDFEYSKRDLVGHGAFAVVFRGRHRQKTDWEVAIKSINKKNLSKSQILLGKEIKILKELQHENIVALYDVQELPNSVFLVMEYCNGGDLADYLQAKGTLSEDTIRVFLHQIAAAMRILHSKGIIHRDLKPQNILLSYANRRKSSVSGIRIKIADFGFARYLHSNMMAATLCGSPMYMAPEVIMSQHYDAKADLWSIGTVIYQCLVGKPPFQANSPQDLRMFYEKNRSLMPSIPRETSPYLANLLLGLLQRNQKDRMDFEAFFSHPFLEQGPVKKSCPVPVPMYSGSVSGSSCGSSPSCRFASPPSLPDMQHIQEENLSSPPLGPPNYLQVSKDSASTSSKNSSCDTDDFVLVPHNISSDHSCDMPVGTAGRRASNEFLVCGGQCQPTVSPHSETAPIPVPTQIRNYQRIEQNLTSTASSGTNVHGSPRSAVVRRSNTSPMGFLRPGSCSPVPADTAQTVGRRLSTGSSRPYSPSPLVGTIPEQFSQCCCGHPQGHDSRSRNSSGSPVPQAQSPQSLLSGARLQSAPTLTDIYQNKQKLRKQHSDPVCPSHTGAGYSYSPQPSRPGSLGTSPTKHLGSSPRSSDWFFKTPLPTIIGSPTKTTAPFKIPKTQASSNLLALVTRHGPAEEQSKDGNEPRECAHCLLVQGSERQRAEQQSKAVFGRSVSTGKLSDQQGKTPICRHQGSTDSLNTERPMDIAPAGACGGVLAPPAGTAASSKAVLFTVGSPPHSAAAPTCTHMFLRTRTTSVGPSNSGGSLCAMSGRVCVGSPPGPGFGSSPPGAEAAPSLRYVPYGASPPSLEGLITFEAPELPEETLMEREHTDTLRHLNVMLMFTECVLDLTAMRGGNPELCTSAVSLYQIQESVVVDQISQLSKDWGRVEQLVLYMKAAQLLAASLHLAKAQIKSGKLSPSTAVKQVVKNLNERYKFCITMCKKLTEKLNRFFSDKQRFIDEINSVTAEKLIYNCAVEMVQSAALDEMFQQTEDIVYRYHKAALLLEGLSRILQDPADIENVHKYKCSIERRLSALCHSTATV

[4] = target: Dual specificity protein kinase CLK2 (Homo sapiens) (UniProt P49760); experiment: Inhibition of CLK2 (unknown origin) at 10 uM after 120 mins P33 radiolabeled kinase activity assay
Chain of Dual specificity protein kinase CLK2 (Homo sapiens) (P49760 whole entry, looked up): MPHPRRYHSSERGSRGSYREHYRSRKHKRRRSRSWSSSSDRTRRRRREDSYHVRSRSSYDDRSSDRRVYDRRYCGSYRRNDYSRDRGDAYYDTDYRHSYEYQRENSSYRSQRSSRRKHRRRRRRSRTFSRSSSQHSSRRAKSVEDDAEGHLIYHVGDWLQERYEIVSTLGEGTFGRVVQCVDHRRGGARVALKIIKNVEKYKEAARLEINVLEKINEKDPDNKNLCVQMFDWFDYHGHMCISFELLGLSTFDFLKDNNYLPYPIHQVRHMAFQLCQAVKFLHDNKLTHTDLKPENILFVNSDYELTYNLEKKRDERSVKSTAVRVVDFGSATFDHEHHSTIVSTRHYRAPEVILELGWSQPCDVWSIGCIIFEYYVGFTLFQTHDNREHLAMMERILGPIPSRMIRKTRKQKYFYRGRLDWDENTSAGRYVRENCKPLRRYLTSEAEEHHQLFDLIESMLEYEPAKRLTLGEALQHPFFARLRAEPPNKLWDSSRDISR

SMILES | inhibition [1] [%] | inhibition [2] [%] | inhibition [3] [%] | inhibition [4] [%]
COCCNC(=O)c1ccc2c(c1)nc(-c1cnc(-c3ccc(Cl)cc3)[nH]1)n2CCOC | 0.89 | 9.76 | -2.46 | 7.06
CS(=O)(=O)c1cccc(Nc2nccc(-c3sc(N4CCOCC4)nc3-c3cccc(NS(=O)(=O)c4c(F)cccc4F)c3)n2)c1 | 87 | 99.9 | 17 | 24.5
CC(C)(C)c1cc(NC(=O)Nc2ccc(Oc3ccncc3)cc2)no1 | 99.8 | 11.4 | -6.09 | 28.8
